From the supplement of paper PMC10307832

What was measured:
Assay in all cases: relative viability (nuclei count vs DMSO), 5 days (fraction); higher = more cells survive
Crizotinib + Navitoclax = compound: C[C@@H](Oc1cc(-c2cnn(C3CCNCC3)c2)cnc1N)c1c(Cl)ccc(F)c1Cl [Crizotinib] + CC1(C)CCC(c2ccc(Cl)cc2)=C(CN2CCN(c3ccc(C(=O)NS(=O)(=O)c4ccc(N[C@H](CCN5CCOCC5)CSc5ccccc5)c(S(=O)(=O)C(F)(F)F)c4)cc3)CC2)C1 [Navitoclax] (partner 0.5 µM)
Procedure, shortened: (§1)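 Lung cancer cell lines were seeded in 1536-well plates and dosed by pin tool the next day, with either a single drug or a fixed anchor-drug dose combined with five library-drug doses (not always all listed) spaced in √10 steps. Five days later, one step fixed the cells and stained their nuclei (final 0.05% Triton X-100, 1% formaldehyde, 1 ug/ml Hoechst), and nuclei were counted on 4× images. Relative viability is the nuclei count in treated wells divided by the count in vehicle wells, and each value is the median of duplicate plates.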

Crizotinib + Foretinib = compound: C[C@@H](Oc1cc(-c2cnn(C3CCNCC3)c2)cnc1N)c1c(Cl)ccc(F)c1Cl [Crizotinib] + COc1cc2c(Oc3ccc(NC(=O)C4(C(=O)Nc5ccc(F)cc5)CC4)cc3F)ccnc2cc1OCCCN1CCOCC1 [Foretinib] (partner 0.25 µM)
Procedure, shortened: as §1

Carfilzomib + AZD7762 = compound: CC(C)C[C@H](NC(=O)[C@H](CCc1ccccc1)NC(=O)CN1CCOCC1)C(=O)N[C@@H](Cc1ccccc1)C(=O)N[C@@H](CC(C)C)C(=O)[C@@]1(C)CO1 [Carfilzomib] + NC(=O)Nc1cc(-c2cccc(F)c2)sc1C(=O)N[C@H]1CCCNC1 [AZD7762] (partner 0.2 µM)
Procedure, shortened: as §1

Carfilzomib + Luminespib = compound: CC(C)C[C@H](NC(=O)[C@H](CCc1ccccc1)NC(=O)CN1CCOCC1)C(=O)N[C@@H](Cc1ccccc1)C(=O)N[C@@H](CC(C)C)C(=O)[C@@]1(C)CO1 [Carfilzomib] + CCNC(=O)c1noc(-c2cc(C(C)C)c(O)cc2O)c1-c1ccc(CN2CCOCC2)cc1 [Luminespib] (partner 0.01 µM)
Procedure, shortened: as §1

Row | Cell Line | relative viability (Crizotinib + Navitoclax; first compound 0.01 µM) | relative viability (Crizotinib + Navitoclax; first compound 0.03162 µM) | relative viability (Crizotinib + Navitoclax; first compound 0.1 µM) | relative viability (Crizotinib + Navitoclax; first compound 1 µM) | relative viability (Crizotinib + Foretinib; first compound 0.03162 µM) | relative viability (Crizotinib + Foretinib; first compound 0.1 µM) | relative viability (Crizotinib + Foretinib; first compound 1 µM) | relative viability (Carfilzomib + AZD7762; first compound 0.001 µM) | relative viability (Carfilzomib + AZD7762; first compound 0.003162 µM) | relative viability (Carfilzomib + AZD7762; first compound 0.01 µM) | relative viability (Carfilzomib + AZD7762; first compound 0.03162 µM) | relative viability (Carfilzomib + AZD7762; first compound 0.1 µM) | relative viability (Carfilzomib + Luminespib; first compound 0.001 µM) | relative viability (Carfilzomib + Luminespib; first compound 0.003162 µM) | relative viability (Carfilzomib + Luminespib; first compound 0.01 µM) | relative viability (Carfilzomib + Luminespib; first compound 0.03162 µM) | relative viability (Carfilzomib + Luminespib; first compound 0.1 µM) | relative viability (Crizotinib + Foretinib; first compound 0.3162 µM) | relative viability (Crizotinib + Navitoclax; first compound 0.3162 µM) | relative viability (Crizotinib + Foretinib; first compound 0.01 µM)
1 | NCI-H441 | 0.959 | 0.571 | 0.682 | 0.798 | 0.958 | 0.931 | 0.825 | 1.06 | 1.23 | 1.07 | 0.252 | 0.138 | 0.303 | 0.308 | 0.318 | 0.208 | 0.173 |  |  | 
2 | ABC-1 |  |  |  |  | 1.02 | 1.05 | 1.09 |  | 0.786 | 0.506 |  | 1.01 | 0.581 | 1.35 | 0.246 | 0.193 | 0.141 | 1.31 |  | 
3 | NCI-H2170 | 0.536 | 0.603 | 0.574 | 0.632 | 0.991 | 0.999 | 1.01 | 0.846 | 0.963 | 1.02 | 0.734 | 0.238 | 0.635 | 0.666 | 0.612 | 0.579 | 0.311 | 1.02 | 0.468 | 0.965
4 | NCI-H1944 | 1.01 | 0.995 | 1 | 1.05 | 0.877 | 0.847 | 0.862 | 0.538 | 0.568 | 0.587 | 0.448 | 0.317 | 0.698 | 0.774 | 0.707 | 0.732 | 0.205 | 0.884 | 1.03 | 0.823
5 | PC-3 [JPC-3] | 0.809 | 0.807 | 0.815 | 0.858 | 1.05 | 1.01 | 0.986 | 0.882 | 0.762 | 0.993 | 0.512 | 0.248 | 0.754 | 0.706 | 0.742 | 0.646 | 0.331 | 0.992 | 0.684 | 0.969
6 | NCI-H1648 |  |  |  |  |  |  |  | 0.657 | 0.621 | 0.603 | 0.407 | 0.268 |  |  |  |  |  |  |  | 
7 | NCI-H1975 | 0.965 | 1.06 | 1.03 | 1.06 | 1.03 | 0.902 | 0.975 | 0.651 | 0.804 | 0.684 | 0.222 | 0.19 | 0.2 | 0.185 | 0.261 | 0.167 | 0.16 | 0.962 | 1.26 | 0.941
8 | NCI-H650 |  |  |  |  | 0.998 | 1.03 | 0.99 | 0.862 | 1.1 | 0.964 | 0.88 | 0.23 |  | 0.866 | 0.636 | 0.746 | 0.182 | 0.977 |  | 1.03
9 | NCI-H1623 |  |  |  |  | 0.92 | 0.829 | 0.801 |  |  |  |  |  | 0.466 | 0.527 | 0.563 | 0.59 | 0.345 | 0.873 |  | 0.736
10 | NCI-H1755 | 0.937 | 1.02 | 0.999 | 0.983 | 0.923 | 0.887 | 0.891 | 0.476 | 0.502 | 0.496 | 0.435 | 0.409 | 0.54 | 0.367 | 0.481 | 0.288 | 0.453 | 0.877 | 0.961 | 0.835
11 | NCI-H1666 | 0.93 | 0.81 | 0.857 | 1.06 | 0.969 | 0.99 | 0.955 | 0.837 | 0.935 | 1.1 | 0.704 | 0.475 | 0.993 | 1.06 | 1.11 | 0.863 | 0.358 | 0.964 | 0.876 | 0.921
12 | NCI-H1792 | 0.629 | 0.679 | 0.745 | 0.577 |  |  |  |  | 0.96 | 0.742 | 0.38 | 0.0881 | 0.425 | 0.423 | 0.482 | 0.456 | 0.356 |  | 0.398 | 
13 | CAL-12T | 1.19 | 1.22 | 1.06 | 1.21 | 1.17 |  | 1.24 | 0.607 | 0.719 | 0.787 | 0.586 | 0.26 | 0.486 | 0.29 | 0.478 | 0.16 | 0.141 |  | 1.18 | 1.11
14 | EPLC-272H |  | 1.1 | 1.26 | 1.15 | 0.627 | 0.669 | 0.679 | 0.195 | 0.253 | 0.209 | 0.159 | 0.0687 | 0.266 | 0.694 | 0.269 | 0.151 | 0.101 | 0.636 | 1.1 | 0.669
15 | IA-LM | 0.71 | 0.759 | 0.792 | 0.842 | 1.05 | 1.18 | 1.1 |  |  |  |  |  |  |  |  |  |  | 1.21 | 0.796 | 1.07
16 | PC-14 | 0.983 | 0.96 | 0.991 | 0.998 | 1.01 |  | 0.999 | 0.377 | 0.368 | 0.392 | 0.158 | 0.0776 | 0.143 | 0.176 | 0.18 | 0.117 | 0.109 | 0.926 | 1.04 | 0.894
17 | NCI-H1703 | 1.03 | 0.933 |  | 1.12 | 0.295 | 0.358 | 0.331 | 0.121 | 0.168 | 0.128 | 0.107 | 0.0623 |  |  |  |  |  | 0.398 |  | 0.362
18 | NCI-H358 |  |  |  |  | 0.835 | 0.649 | 0.713 | 0.449 | 0.615 | 0.63 | 0.255 | 0.226 | 0.295 | 0.456 | 0.378 | 0.281 | 0.118 | 0.624 |  | 0.609
19 | LCLC-103H |  |  |  |  | 0.732 | 0.727 | 0.711 | 0.767 | 0.849 | 0.759 | 0.778 | 0.402 | 0.849 | 0.975 | 0.943 | 1.04 | 0.176 | 0.865 |  | 0.75
